The series is described as follows: solubility in rubber mixtures. Format: physicochemical. Conditions: in particular for vehicle tires and other technical rubber articles.

Data on 1 compound can be found in patent US20250100969A1, “COMPOUND, RUBBER BLEND CONTAINING THE COMPOUND, VEHICLE TIRE COMPRISING THE RUBBER BLEND IN AT LEAST ONE COMPONENT, PROCESS FOR PRODUCING THE COMPOUND, AND USE OF THE COMPOUND AS AN AGE RESISTOR AND/OR ANTIOXIDANT” (Continental Reifen Deutschland GmbH, priority 2021, published 2025).

Molecules are shown by their SMILES.

For the compound `CC(C)CC(C)Nc1ccc2[nH]c3ccccc3c2c1` (stereo not shown) [compound according to the invention, N-(1,3-dimethylbutyl)-9H-carbazol-3-amine], the “solubility in rubber mixtures” value is on record as “very good”.
